Reference: patent US4122034A, “Antimicrobial compositions” (Schering Corporation, priority 1975, dated 1978)
≈ marks a conversion by molar mass, not a printed value.

Experiments:
Candida albicans = experiment: In vitro Anti-Candida activity, dilutions in Sabouraud's Dextrose Agar (Table III); type: cell-based; conditions: 48 h
Protocol: (§1) All the tests were carried out and (when necessary) scored under standard conditions. "MIC" means "minimum inhibitory concentration."
In vitro Anti-Candida Activity of 2-aminoalkyl-3-phenyl-
indoles of the formula I. Dilutions in Sabouraud's Dextrose
MIC (mcg/ml) after 48 hours

Epidermophyton floccosum = experiment: In vitro antifungal activity, dilutions in Sabouraud's Dextrose Broth (Table IV); type: cell-based; conditions: after 96 hours
Protocol: as §1
(§2) In vitro Antifungal Activity of 2-amioalkyl-3-phenylindoles
(§3) of the formula I against Dermetophytes and Aspergillus.
(§4) Dilutions in Sabouraud's Dextrose Broth.

Trichophyton rubrum = experiment: as above; type: cell-based; conditions: 96 h
Protocol: as §1, §2, §3, §4

Microsporum distortum = experiment: as above; type: cell-based; conditions: after 96 hours
Protocol: as §1, §2, §3, §4

Tricoderm sp. = experiment: as above; type: cell-based; conditions: after 96 hours
Protocol: as §1, §2, §3, §4

Trichophyton soudenense = experiment: as above; type: cell-based; conditions: after 96 hours
Protocol: as §1, §2, §3, §4

Trichophyton ferrugineum = experiment: as above; type: cell-based; conditions: Microsporum ferrugineum; after 96 hours
Protocol: as §1, §2, §3, §4

Microsporum nanum = experiment: as above; type: cell-based; conditions: Nannizzia nana; after 96 hours
Protocol: as §1, §2, §3, §4

[1] = tested on: Trichophyton mentagrophytes; experiment: as above; type: cell-based; conditions: 96 h
Protocol: as §1, §2, §3, §4

Trichophyton tonsurans = experiment: as above; type: cell-based; conditions: after 96 hours
Protocol: as §1, §2, §3, §4

Trichophyton gallinae = experiment: as above; type: cell-based; conditions: after 96 hours
Protocol: as §1, §2, §3, §4

Trichophyton discoides = experiment: as above; type: cell-based; conditions: after 96 hours
Protocol: as §1, §2, §3, §4

Trichophyton ascoides = experiment: as above; type: cell-based; conditions: after 96 hours
Protocol: as §1, §2, §3, §4

T. mentagrophytes = experiment: Effect against topical T. mentagrophytes infections in guinea pigs (Table VI); type: in vivo; set-up: Average Sum of lesion scores, Days 1-5 / Average Sum of lesion scores, Days 1-10: scale not given here; conditions: for Average Sum of lesion scores, Days 1-5: untreated controls 14.8; for Average Sum of lesion scores, Days 1-10: untreated controls 38.2
Protocol: as §1
Effect of some 2-aminoalkyl-3-phenylindoles of the formula II
against topical T. mentagrophytes infections in guinea pigs.

Klebsiella = experiment: In vitro antibacterial activity, dilution in Mueller Hinton Agar (Table I); type: cell-based
Protocol: as §1
(§5) In vitro Antibacterial Activity of 2-aminoalkyl-3-phenyl-
(§6) indoles of the formula I. Dilution in Mueller Hinton Agar pH 7.4

Salmonella = experiment: as above; type: cell-based
Protocol: as §1, §5, §6

Proteus rettgeri = experiment: as above; type: cell-based; conditions: Providencia rettgeri; 'Proteus rettgeri mirabilis' [sic]; Mueller Hinton Agar pH 7.4
Protocol: as §1, §5, §6

Pseudomonas acruginosa = experiment: as above; type: cell-based
Protocol: as §1, §5, §6

Enterococcus = experiment: as above; type: cell-based
Protocol: as §1, §5, §6

Escherichia coli = experiment: as above; type: cell-based
Protocol: as §1, §5, §6

Proteus morganii = experiment: as above; type: cell-based; conditions: Morganella morganii; strain Valz; Mueller Hinton Agar pH 7.4
Protocol: as §1, §5, §6

Staphylococcus aureus = experiment: as above; type: cell-based; conditions: Mueller Hinton Agar pH 7.4
Protocol: as §1, §5, §6

Proteus vulgaris = experiment: as above; type: cell-based; conditions: strain Napol, Mueller Hinton Agar pH 7.4
Protocol: as §1, §5, §6

Proteus mirabilis = experiment: as above; type: cell-based; conditions: Mueller Hinton Agar pH 7.4
Protocol: as §1, §5, §6

Streptococcus pyogenes = experiment: as above; type: cell-based
Protocol: as §1, §5, §6

SMILES: NCc1[nH]c2ccc(Cl)cc2c1-c1ccccc1 [C, 2-(1-aminomethyl)-5-chloro-3-phenylindole]
- MIC (Candida albicans; strain 1, after 48 hours): 75 µg/mL (≈ 292 µM)
- MIC (Candida albicans; strain 2, after 48 hours): 75 µg/mL (≈ 292 µM)
- MIC (Candida albicans; strain 3, after 48 hours): 75 µg/mL (≈ 292 µM)
- MIC (Candida albicans; strain 4, after 48 hours): 37.5 µg/mL (≈ 146 µM)
- MIC (Candida albicans; strain 5, after 48 hours): 75 µg/mL (≈ 292 µM)
- MIC (Candida albicans; strain 6, after 48 hours): 75 µg/mL (≈ 292 µM)
- MIC (Candida albicans; strain 8, after 48 hours): 75 µg/mL (≈ 292 µM)
- MIC (Candida albicans; strain 9, after 48 hours): 75 µg/mL (≈ 292 µM)
- MIC (Candida albicans; strain 29, after 48 hours): 37.5 µg/mL (≈ 146 µM)
- MIC (Candida albicans; strain Atkisson, after 48 hours): 75 µg/mL (≈ 292 µM)
- MIC (Candida albicans; strain Bertrand, after 48 hours): 75 µg/mL (≈ 292 µM)
- MIC (Candida albicans; strain Bevan, after 48 hours): 75 µg/mL (≈ 292 µM)
- MIC (Candida albicans; strain Blunden, after 48 hours): 75 µg/mL (≈ 292 µM)
- MIC (Candida albicans; strain Bognay, after 48 hours): 75 µg/mL (≈ 292 µM)
- MIC (Candida albicans; strain Boyer, after 48 hours): 75 µg/mL (≈ 292 µM)
- MIC (Candida albicans; strain Burke, after 48 hours): 75 µg/mL (≈ 292 µM)
- MIC (Candida albicans; strain Burnside, after 48 hours): 75 µg/mL (≈ 292 µM)
- MIC (Candida albicans; strain Collins, after 48 hours): 75 µg/mL (≈ 292 µM)
- MIC (Candida albicans; strain Fix, after 48 hours): 75 µg/mL (≈ 292 µM)
- MIC (Candida albicans; strain Frazier, after 48 hours): 75 µg/mL (≈ 292 µM)
- MIC (Candida albicans; strain Fulcher, after 48 hours): 75 µg/mL (≈ 292 µM)
- MIC (Candida albicans; strain Gay, after 48 hours): 75 µg/mL (≈ 292 µM)
- MIC (Candida albicans; strain Hons, after 48 hours): 75 µg/mL (≈ 292 µM)
- MIC (Candida albicans; strain Johnson, after 48 hours): 75 µg/mL (≈ 292 µM)
- MIC (Candida albicans; strain Kenndy 2, after 48 hours): 75 µg/mL (≈ 292 µM)
- MIC (Candida albicans; strain Kennedy 1, after 48 hours): 37.5 µg/mL (≈ 146 µM)
- MIC (Candida albicans; strain Lehtman, after 48 hours): 75 µg/mL (≈ 292 µM)
- MIC (Candida albicans; strain Lusk, after 48 hours): 75 µg/mL (≈ 292 µM)
- MIC (Candida albicans; strain Merkel, after 48 hours): 75 µg/mL (≈ 292 µM)
- MIC (Candida albicans; strain Newcomb, after 48 hours): 37.5 µg/mL (≈ 146 µM)
- MIC (Candida albicans; strain Sherod, after 48 hours): 75 µg/mL (≈ 292 µM)
- MIC (Candida albicans; strain Shurelli, after 48 hours): 75 µg/mL (≈ 292 µM)
- MIC (Candida albicans; strain Sparks, after 48 hours): 75 µg/mL (≈ 292 µM)
- MIC (Candida albicans; strain Tyner, after 48 hours): 75 µg/mL (≈ 292 µM)
- MIC (Epidermophyton floccosum): 17.5 µg/mL (≈ 68.2 µM)
- MIC (Trichophyton rubrum; strain 3, after 96 hours): 17.5 µg/mL (≈ 68.2 µM)
- MIC (Trichophyton rubrum; strain 360, after 96 hours): 7.5 µg/mL (≈ 29.2 µM)
- MIC (Trichophyton rubrum; strain Blehl, after 96 hours): 37.5 µg/mL (≈ 146 µM)
- MIC (Trichophyton rubrum; strain Haggerty, after 96 hours): 7.5 µg/mL (≈ 29.2 µM)
- MIC (Microsporum distortum): 7.5 µg/mL (≈ 29.2 µM)
- MIC (Tricoderm sp.): 7.5 µg/mL (≈ 29.2 µM)
- MIC (Trichophyton soudenense): 17.5 µg/mL (≈ 68.2 µM)
- MIC (Trichophyton ferrugineum): 17.5 µg/mL (≈ 68.2 µM)
- MIC (Microsporum nanum): 3 µg/mL (≈ 11.7 µM)
- MIC ([1]; strain A, after 96 hours): 7.5 µg/mL (≈ 29.2 µM)
- MIC ([1]; strain B, after 96 hours): 7.5 µg/mL (≈ 29.2 µM)
- MIC ([1]; strain C, after 96 hours): 3 µg/mL (≈ 11.7 µM)
- MIC ([1]; strain H377, after 96 hours): 17.5 µg/mL (≈ 68.2 µM)
- MIC ([1]; strain Young, after 96 hours): 7.5 µg/mL (≈ 29.2 µM)
- MIC (Trichophyton tonsurans): 7.5 µg/mL (≈ 29.2 µM)
- MIC (Trichophyton gallinae): 37.5 µg/mL (≈ 146 µM)
- MIC (Trichophyton discoides): 17.5 µg/mL (≈ 68.2 µM)
- MIC (Trichophyton ascoides): 7.5 µg/mL (≈ 29.2 µM)
- Average No. of Days to become negative, Cultures (T. mentagrophytes; concentration 1%): 12.4 days
- Average No. of Days to become negative, Lesion (T. mentagrophytes; concentration 1%): 14.4 days
- Average Sum of lesion scores, Days 1-5 (T. mentagrophytes; concentration 1%): 13.0
- Average Sum of lesion scores, Days 1-10 (T. mentagrophytes; concentration 1%): 25.0
- Average No. of Days to become negative, Cultures (T. mentagrophytes; concentration 4%): 5.6 days
- Average No. of Days to become negative, Lesion (T. mentagrophytes; concentration 4%): 7.4 days
- Average Sum of lesion scores, Days 1-5 (T. mentagrophytes; concentration 4%): 10.0
- Average Sum of lesion scores, Days 1-10 (T. mentagrophytes; concentration 4%): 11.8
- MIC (Klebsiella; pH 7.4, strain 121, Mueller Hinton Agar pH 7.4): 3 µg/mL (≈ 11.7 µM)
- MIC (Klebsiella; pH 7.4, strain 3020, Mueller Hinton Agar pH 7.4): 3 µg/mL (≈ 11.7 µM)
- MIC (Klebsiella; pH 7.4, strain AD17, Mueller Hinton Agar pH 7.4): 7.5 µg/mL (≈ 29.2 µM)
- MIC (Klebsiella; pH 7.4, strain AD22, Mueller Hinton Agar pH 7.4): 3 µg/mL (≈ 11.7 µM)
- MIC (Klebsiella; pH 7.4, strain G3694, Mueller Hinton Agar pH 7.4): 3 µg/mL (≈ 11.7 µM)
- MIC (Salmonella; TYPHI, pH 7.4, B typhi, Mueller Hinton Agar pH 7.4): 3 µg/mL (≈ 11.7 µM)
- MIC (Salmonella; pH 7.4, C1 Oao, Mueller Hinton Agar pH 7.4): 3 µg/mL (≈ 11.7 µM)
- MIC (Salmonella; pH 7.4, C2 Cuban, Mueller Hinton Agar pH 7.4): 3 µg/mL (≈ 11.7 µM)
- MIC (Salmonella; pH 7.4, C2 Napc, Mueller Hinton Agar pH 7.4): 3 µg/mL (≈ 11.7 µM)
- MIC (Salmonella; pH 7.4, Salmonella ent. 1, Mueller Hinton Agar pH 7.4): 7.5 µg/mL (≈ 29.2 µM)
- MIC (Proteus rettgeri): 7.5 µg/mL (≈ 29.2 µM)
- MIC (Pseudomonas acruginosa; pH 7.4, strain 130, Mueller Hinton Agar pH 7.4): 17.5 µg/mL (≈ 68.2 µM)
- MIC (Pseudomonas acruginosa; pH 7.4, strain 138, Mueller Hinton Agar pH 7.4): 17.5 µg/mL (≈ 68.2 µM)
- MIC (Pseudomonas acruginosa; pH 7.4, strain 762, Mueller Hinton Agar pH 7.4): 37.5 µg/mL (≈ 146 µM)
- MIC (Pseudomonas acruginosa; pH 7.4, strain 8709, Mueller Hinton Agar pH 7.4): 17.5 µg/mL (≈ 68.2 µM)
- MIC (Pseudomonas acruginosa; pH 7.4, strain Trav. 1, Mueller Hinton Agar pH 7.4): 17.5 µg/mL (≈ 68.2 µM)
- MIC (Enterococcus; pH 7.4, strain 373, Mueller Hinton Agar pH 7.4): 7.5 µg/mL (≈ 29.2 µM)
- MIC (Enterococcus; pH 7.4, strain 0928/72, Mueller Hinton Agar pH 7.4): 7.5 µg/mL (≈ 29.2 µM)
- MIC (Escherichia coli; pH 7.4, strain 777, Mueller Hinton Agar pH 7.4): 3 µg/mL (≈ 11.7 µM)
- MIC (Escherichia coli; pH 7.4, strain 1574-1, Mueller Hinton Agar pH 7.4): 3 µg/mL (≈ 11.7 µM)
- MIC (Escherichia coli; pH 7.4, strain 4195, Mueller Hinton Agar pH 7.4): 3 µg/mL (≈ 11.7 µM)
- MIC (Escherichia coli; pH 7.4, strain 10536, Mueller Hinton Agar pH 7.4): 7.5 µg/mL (≈ 29.2 µM)
- MIC (Escherichia coli; pH 7.4, strain JR66, Mueller Hinton Agar pH 7.4): 3 µg/mL (≈ 11.7 µM)
- MIC (Proteus morganii): 7.5 µg/mL (≈ 29.2 µM)
- MIC (Staphylococcus aureus; 209P, pH 7.4, strain 209P): 7.5 µg/mL (≈ 29.2 µM)
- MIC (Staphylococcus aureus; pH 7.4, strain 59N): 7.5 µg/mL (≈ 29.2 µM)
- MIC (Staphylococcus aureus; pH 7.4, strain Gray): 7.5 µg/mL (≈ 29.2 µM)
- MIC (Staphylococcus aureus; pH 7.4, strain Wood): 7.5 µg/mL (≈ 29.2 µM)
- MIC (Staphylococcus aureus; pH 7.4, strain Zeigler): 3 µg/mL (≈ 11.7 µM)
- MIC (Proteus vulgaris): 7.5 µg/mL (≈ 29.2 µM)
- MIC (Proteus mirabilis; pH 7.4, strain Hard): 7.5 µg/mL (≈ 29.2 µM)
- MIC (Proteus mirabilis; pH 7.4, strain Peras): 7.5 µg/mL (≈ 29.2 µM)
- MIC (Streptococcus pyogenes; pH 7.4, strain 27, Mueller Hinton Agar pH 7.4): 7.5 µg/mL (≈ 29.2 µM)
- MIC (Streptococcus pyogenes; pH 7.4, strain C, Mueller Hinton Agar pH 7.4): 7.5 µg/mL (≈ 29.2 µM)
- MIC (Streptococcus pyogenes; pH 7.4, strain Cruz, Mueller Hinton Agar pH 7.4): 3 µg/mL (≈ 11.7 µM)
